From article PMC4077824, “Conserved Prosegment Residues Stabilize a Late-Stage Folding Transition State of Pepsin Independently of Ground States” (PLoS ONE, 2014)
“Also recorded” adds a separate entry of the source. Where no end group is shown, it is not given here.

Columns and labels:
native pepsin (Np) = biological target: T1, native pepsin (Np) (Sus scrofa, UniProt P00791); test: PS binding to Np (competitive inhibition of KPAEFF(NO2)AL hydrolysis); type: biochemical, porcine; conditions: for Ki: 10 nM Np, 20 mM acetic acid/NaOH pH 5.3, 100 mM NaCl, 5 min incubation, substrate KPAEFF(NO2)AL 0.1 mM, absorbance 300 nm, competitive model, mean ± SD from non-linear curve fitting, 3-5 measurements, read-out: K i (PS-Np inhibition constant); for Ki / ΔΔGPS-Np (change in PS-Np binding energy upon mutation): 20°C; for ΔΔGPS-Np (change in PS-Np binding energy upon mutation): from K i, pH 5.3, relative to WT, ± SD by propagation of errors; for effect on affinity for Np / PS-Np stability (in words): pH 5.3, 20°C, PS inhibition of Np, compared with PSwt
T1 construct: Only the R13 and K36 side-chains of the PS form hydrogen bonds with the mature pepsin domain; purchased Sigma (St. Louis, MO, USA)
T1 sequence (P00791 60-385): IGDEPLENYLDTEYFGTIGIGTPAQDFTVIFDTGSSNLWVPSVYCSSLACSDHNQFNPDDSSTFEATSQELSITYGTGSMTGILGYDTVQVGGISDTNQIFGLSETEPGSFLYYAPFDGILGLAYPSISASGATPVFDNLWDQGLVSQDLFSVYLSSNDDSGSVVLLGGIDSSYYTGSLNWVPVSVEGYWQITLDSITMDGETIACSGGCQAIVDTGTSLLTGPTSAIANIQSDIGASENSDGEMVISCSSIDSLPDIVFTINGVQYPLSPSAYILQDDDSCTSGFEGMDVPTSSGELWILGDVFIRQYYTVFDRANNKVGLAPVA
Method: PS binding to Np was determined by using the PS as a competitive inhibitor and measuring the inhibition constant, K i. Hydrolysis of the KPAEFF(NO2)AL substrate was measured by following the decrease in absorbance at 300 nm using a Biochrom Ultrospec 3100pro UV-Vis spectrophotometer (Biochrom Ltd., Cambridge, England) in 20 mM acetic acid/NaOH buffer, pH 5.3, containing 100 mM NaCl. Np samples were diluted to 10 nM and incubated with PS for 5 min at 20°C and assayed for activity. The reaction rates were normalized to the activity in the absence of PS and the data fit using the competitive inhibitor form of the Michaelis-Menten equation [drawing 2] (2) where v0 is the initial reaction rate, V max is the maximum reaction rate, [S] is the substrate concentration (fixed at 0.1 mM), [I] is the inhibitor concentration, and K M is the Michaelis constant.
(§1) The change in stability of the folding transition state upon mutation was calculated using [drawing 3] (3) where k f, wt and k f, mut are the PS-catalyzed folding rate constants of the wild-type and mutant PS peptides. The change in equilibrium stability of PS-Np relative to PS-Rp upon mutation of the PS (ΔΔGPS(Np-Rp)) was determined as the difference between the changes in binding energies, using [drawing 4] (4) and [drawing 5] (5)
(§2) Here, ΔΔGbind refers to either ΔΔGPS-Rp, determined from K d values, or ΔΔGPS-Np, determined from K i values. The Φ-value for each mutant corresponds to eq 3 divided by eq 5. Additional details are included in the supporting information section (Text S1).

refolded pepsin (Rp) [1] = biological target: T2, refolded pepsin (Rp) (Sus scrofa, UniProt P00791); test: PS binding to Rp (Trp-fluorescence); parameters: species or system porcine; conditions: for Kd: 0.6-1.2 µM Rp, 20 mM acetic acid/NaOH pH 5.3 without added NaCl, ≥10 min, Trp-fluorescence ex 295 nm, em 315 nm, mean ± SD from non-linear curve fitting, 3-5 measurements, read-out: K d (PS-Rp dissociation constant); for Kd / ΔΔGPS-Rp (change in PS-Rp binding energy upon mutation): 20°C; for ΔΔGPS-Rp (change in PS-Rp binding energy upon mutation): from K d, pH 5.3, relative to WT, ± SD by propagation of errors; for effect on affinity for Rp / PS-Rp stability (in words): pH 5.3, 20°C, compared with PSwt
T2 construct: Only the R13 and K36 side-chains of the PS form hydrogen bonds with the mature pepsin domain; purchased Sigma (St. Louis, MO, USA)
T2 sequence (P00791 60-385): as above
Method: The change in intrinsic tryptophan fluorescence of pepsin was used to measure the binding of PS to Rp and to determine the dissociation constant, K d. Rp solutions were diluted to between 0.6 and 1.2 µM in 20 mM acetic acid/NaOH buffer, pH 5.3, and mixed with various amounts of PS. After incubating the samples at 20°C for ≥10 minutes, the intrinsic tryptophan fluorescence was measured using a PTI spectrofluorophotometer (Photon Technology International, Inc., Birmingham NJ, USA), with excitation at 295 nm and emission measured at 315 nm. The change in fluorescence, ΔF i, at each PS concentration, [PS], was normalized relative to the maximum change, ΔF max, and fit according to [drawing 1] (1) where [Rp] is the total concentration of pepsin.
PS binding to Rp was measured in buffer without added 100 mM NaCl in order to obtain more accurate measurements of K d, owing to a larger change in signal in the absence of salt. Additionally, without added 100 mM NaCl it was possible to isolate the PS-Rp binding step from the catalyzed folding step thereby improving the determination of K d.
as §1, §2

refolded pepsin (Rp) [2] = biological target: T2, refolded pepsin (Rp); test: PS-catalyzed folding of Rp to Np (recovery of Np activity); type: biochemical, porcine; conditions: for k f (PS-catalyzed folding rate constant): 1 µM Rp, 30 µM PS, pH 5.3 (20 mM acetic acid/NaOH, 100 mM NaCl), Np activity assayed at pH 1.2, 25°C with KPAEFF(NO2)AL, monoexponential fit, mean ± SD from non-linear curve fitting, 3-5 measurements; for k f (PS-catalyzed folding rate constant) / ΔΔG^‡ (change in folding activation energy upon mutation): 15°C; for ΔΔG^‡ (change in folding activation energy upon mutation): from k f, pH 5.3, relative to WT, ± SD by propagation of errors
Method: PS-catalyzed folding of Rp to Np
PS-catalyzed folding was carried out by combining 1 µM Rp and 30 µM PS, in a volume of 100 µl, at pH 5.3 (20 mM acetic acid/NaOH with 100 mM NaCl) and 15°C. Aliquots were taken at several time intervals, diluted 20-fold in 50 mM phosphoric acid buffer, pH 1.2, incubated for 5 min at 25°C and assayed for Np activity using the KPAEFF(NO2)AL substrate. The recovery of Np activity with time, t, was fit with a monoexponential function (y = a – bexp(–k f t)) to obtain the PS-catalyzed folding rate constant, k f. Under these conditions, PS binding to Rp reached equilibrium within the dead-time of mixing (<8 sec), as judged by Trp-fluorescence.
as §1
Temperature dependence of PS-catalyzed folding
PS-catalyzed folding could be measured only up to 15 °C for PSwt, as the reaction was too fast at higher temperatures. […] Given the linear temperature dependence it could be reasonably assumed that changes in activation energies (mutant – wild-type) would be unchanged from 15 °C to 20 °C, and so could be compared directly with changes in binding energies (wild-type – mutant) that were determined at 20 °C.

Row | Ki (native pepsin (Np)) | ΔΔGPS-Np (change in PS-Np binding energy upon mutation) (native pepsin (Np)) | Kd (refolded pepsin (Rp) [1]) | ΔΔGPS-Rp (change in PS-Rp binding energy upon mutation) (refolded pepsin (Rp) [1]) | k f (PS-catalyzed folding rate constant) (refolded pepsin (Rp) [2]) | ΔΔG^‡ (change in folding activation energy upon mutation) (refolded pepsin (Rp) [2]) | effect on rate of PS-catalyzed folding (in words) (refolded pepsin (Rp) [2]; pH 5.3, 15°C, compared with PSwt) | Sequence | effect on affinity for Np / PS-Np stability (in words) (native pepsin (Np)) | effect on affinity for Rp / PS-Rp stability (in words) (refolded pepsin (Rp) [1])
1 | 394 ± 65.1 nM | 1.05 ± 0.14 kcal/mol | 210 ± 90 nM | -0.21 ± 0.24 kcal/mol | 1.40 ± 0.26 min⁻¹ | 0.01 ± 0.18 kcal/mol | no effect | LVKVPLVRKKSLRQNLAKNGKLKDFLKTHKHNPASKYFPEAAAL [I17A] | largest reduction in affinities for Np; also recorded: one of the most destabilizing mutations to the PS-Np complex | negligible effect on PS-Rp binding; also recorded: negligible effect on PS-Rp and PS-TS stability
2 | 64.8 ± 11.4 nM | – | 310 ± 30 nM | – | 1.42 ± 0.34 min⁻¹ | – | – | LVKVPLVRKKSLRQNLIKNGKLKDFLKTHKHNPASKYFPEAAAL [WT] | – | –
3 | 50.9 ± 6.9 nM | -0.14 ± 0.13 kcal/mol | 1190 ± 230 nM | 0.79 ± 0.12 kcal/mol | 0.27 ± 0.03 min⁻¹ | 0.94 ± 0.15 kcal/mol | – | LVKAPLVRKKSLRQNLIKNGKLKDFLKTHKHNPASKYFPEAAAL [V4A] | very small stabilizing effect on PS-Np; also recorded: stabilizing to the native state | relatively large destabilizing effect on PS-Rp
